Values joined by “and” are separate entries in the source; they are usually repeats but may differ in a detail not shown here. Equal entries are not always repeated.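 The compound was tested at five concentrations on cells cultured in 96-well plates, with a 48-hour exposure period. Here, GI50 denotes the concentration required for 50% inhibition of growth.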 Active and inactive are the calls of the source. Rule as the data show it: active = GI50 up to about 1.1 µM and inactive = higher.
What was measured:
Assay in all cases: NCI-60 cell line screen, 48 h
UACC-62 = test system: UACC-62
MOLT-4 = test system: MOLT-4
SK-MEL-28 = test system: SK-MEL-28
RPMI-8226 = test system: RPMI-8226
TK-10 = test system: TK-10
HL-60 = test system: HL-60
COLO 205 = test system: COLO 205
SNB-75 = test system: SNB-75
HCT-15 = test system: HCT-15
ACHN = test system: ACHN
SF-268 = test system: SF-268
SW-620 = test system: SW-620
NCI-H23 = test system: NCI-H23
SK-MEL-2 = test system: SK-MEL-2
PC-3 = test system: PC-3
MDA-N = test system: MDA-N
MDA-MB-231 = test system: MDA-MB-231
EKVX = test system: EKVX
OVCAR-8 = test system: OVCAR-8
SK-MEL-5 = test system: SK-MEL-5
BT-549 = test system: BT-549
T47D = test system: T47D
CCRF-CEM = test system: CCRF-CEM
Malme-3M = test system: Malme-3M
SNB-19 = test system: SNB-19
MDA-MB-435 = test system: MDA-MB-435
UACC-257 = test system: UACC-257
SF-539 = test system: SF-539
RXF 393 = test system: RXF 393
HOP-62 = test system: HOP-62
SF-295 = test system: SF-295
MCF7 = test system: MCF7
U-251 = test system: U-251
CAKI-1 = test system: CAKI-1
OVCAR-3 = test system: OVCAR-3
OVCAR-5 = test system: OVCAR-5
K562 = test system: K562
Hs-578T = test system: Hs-578T
IGROV-1 = test system: IGROV-1
DU-145 = test system: DU-145
KM12 = test system: KM12
NCI-H226 = test system: NCI-H226
SN12C = test system: SN12C
SK-OV-3 = test system: SK-OV-3
M14 = test system: M14
UO-31 = test system: UO-31
NCI-H460 = test system: NCI-H460
OVCAR-4 = test system: OVCAR-4
HT-29 = test system: HT-29
SR = test system: SR
LOX IMVI = test system: LOX IMVI
HCT-116 = test system: HCT-116
A549 = test system: A549
A498 = test system: A498
NCI-H522 = test system: NCI-H522

CC1=Nc2c(N)nc(N)nc2N(C)C1
GI50 (UACC-62): > 100 µM (inactive)
GI50 (MOLT-4): > 100 µM (inactive)
GI50 (SK-MEL-28): > 100 µM (inactive)
GI50 (RPMI-8226): > 100 µM (inactive)
GI50 (TK-10): > 100 µM (inactive)
GI50 (HL-60): > 100 µM (inactive)
GI50 (COLO 205): > 100 µM (inactive)
GI50 (SNB-75): > 100 µM (inactive)
GI50 (HCT-15): > 100 µM
GI50 (ACHN): > 100 µM (inactive)
GI50 (SF-268): > 100 µM (inactive)
GI50 (SW-620): > 100 µM (inactive)
GI50 (NCI-H23): > 100 µM (inactive)
GI50 (SK-MEL-2): > 100 µM (inactive)
GI50 (PC-3): > 100 µM (inactive)
GI50 (MDA-N): > 100 µM (inactive)
GI50 (MDA-MB-231): > 100 µM (inactive)
GI50 (EKVX): > 100 µM (inactive)
GI50 (OVCAR-8): > 100 µM (inactive)
GI50 (SK-MEL-5): > 100 µM (inactive)
GI50 (BT-549): > 100 µM (inactive)
GI50 (T47D): > 100 µM (inactive)
GI50 (CCRF-CEM): > 100 µM (inactive)
GI50 (Malme-3M): > 100 µM (inactive)
GI50 (SNB-19): > 100 µM (inactive)
GI50 (MDA-MB-435): > 100 µM (inactive)
GI50 (UACC-257): > 100 µM (inactive)
GI50 (SF-539): > 100 µM (inactive)
GI50 (RXF 393): > 100 µM (inactive)
GI50 (HOP-62): > 100 µM (inactive)
GI50 (SF-295): > 100 µM (inactive)
GI50 (MCF7): > 100 µM (inactive)
GI50 (U-251): > 100 µM (inactive)
GI50 (CAKI-1): > 100 µM (inactive)
GI50 (OVCAR-3): > 100 µM (inactive)
GI50 (OVCAR-5): > 100 µM (inactive)
GI50 (K562): > 100 µM (inactive)
GI50 (Hs-578T): > 100 µM (inactive)
GI50 (IGROV-1): > 100 µM (inactive)
GI50 (DU-145): > 100 µM (inactive)
GI50 (KM12): > 100 µM (inactive)
GI50 (NCI-H226): > 100 µM (inactive)
GI50 (SN12C): > 100 µM (inactive)
GI50 (SK-OV-3): > 100 µM (inactive)
GI50 (M14): > 100 µM (inactive)
GI50 (UO-31): 74.3 µM (inactive)
GI50 (NCI-H460): > 100 µM (inactive)

CC(=O)O[C@H]1CC2C(C3CC[C@H](C(C)CCC(=O)O)[C@]31C)[C@H](OC(C)=O)C[C@@H]1CC3(CC[C@]21C)OOC1(CCC(C)CC1)OO3 (stereo not given in full)
GI50 (MOLT-4): 2.2 µM (inactive) and 1.51 µM (inactive)
GI50 (OVCAR-4): 2.56 µM (inactive) and 2.32 µM (inactive)
GI50 (SK-MEL-28): 2.06 µM (inactive) and 1.66 µM (inactive)
GI50 (RPMI-8226): 1.91 µM (inactive) and 2.05 µM (inactive)
GI50 (HL-60): 2.97 µM (inactive) and 2.37 µM (inactive)
GI50 (COLO 205): 2.53 µM (inactive)
GI50 (SNB-75): 1.6 µM (inactive)
GI50 (HCT-15): 2.37 µM and 2.96 µM
GI50 (ACHN): 2.59 µM (inactive) and 4.31 µM (inactive)
GI50 (NCI-H23): 2.28 µM (inactive) and 4.31 µM (inactive)
GI50 (HT-29): 2.11 µM (inactive) and 1.81 µM (inactive)
GI50 (PC-3): 5.15 µM (inactive) and 3.17 µM (inactive)
GI50 (MDA-N): 3.77 µM (inactive) and 5.71 µM (inactive)
GI50 (SR): 1.55 µM (inactive)
GI50 (LOX IMVI): 2.15 µM (inactive) and 3.27 µM (inactive)
GI50 (EKVX): 2.08 µM (inactive)
GI50 (OVCAR-8): 1.98 µM (inactive) and 2.85 µM (inactive)
GI50 (BT-549): 3.69 µM (inactive) and 2.74 µM (inactive)
GI50 (HCT-116): 2.16 µM (inactive) and 4.11 µM (inactive)
GI50 (A549): 1.55 µM (inactive) and 2.82 µM (inactive)
GI50 (T47D): 3.07 µM (inactive) and 2.31 µM (inactive)
GI50 (CCRF-CEM): 1.67 µM (inactive) and 2.03 µM (inactive)
GI50 (MDA-MB-435): 2.62 µM (inactive) and 4.74 µM (inactive)
GI50 (UACC-257): 6.92 µM (inactive) and 11.7 µM (inactive)
GI50 (RXF 393): 7.82 µM (inactive) and 12.9 µM (inactive)
GI50 (HOP-62): 3.16 µM (inactive)
GI50 (MCF7): 2.96 µM (inactive) and 4.86 µM (inactive)
GI50 (U-251): 1.76 µM (inactive) and 3.35 µM (inactive)
GI50 (A498): 15 µM (inactive) and 13 µM (inactive)
GI50 (K562): 3.13 µM (inactive) and 3.9 µM (inactive)
GI50 (Hs-578T): 3.4 µM (inactive) and 1.76 µM (inactive)
GI50 (NCI-H522): 2.98 µM (inactive) and 1.61 µM (inactive)
GI50 (IGROV-1): 2.01 µM (inactive)
GI50 (DU-145): 3.32 µM (inactive) and 4.98 µM (inactive)
GI50 (SN12C): 2.72 µM (inactive) and 4.18 µM (inactive)
GI50 (M14): 3.49 µM (inactive) and 6.67 µM (inactive)
GI50 (UO-31): 2.61 µM (inactive)
GI50 (NCI-H460): 2.33 µM (inactive) and 3.53 µM (inactive)
